Legend:
[1] = system: smallflower flatsedge; assay: Test B flood test smallflower flatsedge; type: in vivo, Cyperus difformis; details: for S. Flatsedge plant response rating: scale of 0 to 10 where 0 is no effect and 10 is complete control
Procedure, shortened: (§1)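 Each value is a visual injury score relative to controls, with 10 meaning complete control and 0 no effect. Evaluation took place twelve to sixteen days after the 2-leaf-stage plants were treated and kept in the greenhouse.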

[2] = system: duck salad; assay: Test B flood test duck salad; type: in vivo, Heteranthera limosa
Procedure, shortened: as §1

[3] = system: soybean; assay: Test B pre/postemergence soybean; type: in vivo, Glycine max
Procedure, shortened: (§2)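 Response is a visual 0-to-10 score relative to untreated plants, where 0 means no effect and 10 means complete control, taken twelve to sixteen days after application. Treatments went onto soil at planting and onto foliage of 1- to 4-leaf plants, using a surfactant-containing non-phytotoxic solvent.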

[4] = system: blackgrass; assay: Test B pre/postemergence blackgrass; type: in vivo, Alopecurus myosuroides
Procedure, shortened: as §2

[5] = system: rice; assay: Test B flood test rice; type: in vivo, Oryza sativa
Procedure, shortened: as §1

[6] = system: pigweed; assay: Test B pre/postemergence pigweed; type: in vivo, Amaranthus retroflexus
Procedure, shortened: as §2

[7] = system: giant foxtail; assay: Test B pre/postemergence giant foxtail; type: in vivo, Setaria faberii
Procedure, shortened: as §2

[8] = system: purple nutsedge; assay: Test B pre/postemergence purple nutsedge; type: in vivo, Cyperus rotundus
Procedure, shortened: as §2

[9] = system: bedstraw; assay: Test B pre/postemergence bedstraw; type: in vivo, Galium aparine
Procedure, shortened: as §2

[10] = system: morningglory; assay: Test B pre/postemergence morningglory; type: in vivo, Ipomoea hederacea
Procedure, shortened: as §2

[11] = system: corn; assay: Test B pre/postemergence corn; type: in vivo, Zea mays
Procedure, shortened: as §2

[12] = system: crabgrass; assay: Test B pre/postemergence crabgrass; type: in vivo, Digitaria sanguinalis
Procedure, shortened: as §2

[13] = system: sugar beet; assay: Test B pre/postemergence sugar beet; type: in vivo, Beta vulgaris
Procedure, shortened: as §2

[14] = system: wild oat; assay: Test B pre/postemergence wild oat; type: in vivo, Avena fatua
Procedure, shortened: as §2

[15] = system: surinam grass; assay: Test B pre/postemergence surinam grass; type: in vivo, Brachiaria decumbens
Procedure, shortened: as §2

[16] = system: cocklebur; assay: Test B pre/postemergence cocklebur; type: in vivo, Xanthium strumarium
Procedure, shortened: as §2

[17] = Rate 250 g/ha, Postemergence (flood test), scale 0 to 10, 0 is no effect, 10 is complete control
[18] = Postemergence (flood test species), Rate 125 g/ha, scale of 0 to 10 where 0 is no effect and 10 is complete control
[19] = Rate 31 g/ha, Postemergence section (flood test species), scale 0 to 10
[20] = Rate 62 g/ha, Postemergence section, flood test species, scale of 0 to 10 where 0 is no effect and 10 is complete control
[21] = Postemergence, Rate 125 g/ha, scale of 0 to 10 where 0 is no effect and 10 is complete control
[22] = Preemergence, Rate 62 g/ha, scale 0 to 10 (0 no effect, 10 complete control)
[23] = Preemergence, Rate 125 g/ha, 0 is no effect, 10 is complete control
[24] = Preemergence, Rate 250 g/ha, scale 0 to 10, 0 is no effect, 10 is complete control
[25] = Preemergence, Rate 500 g/ha, scale 0 to 10 (0 no effect, 10 complete control)
[26] = Rate 62 g/ha, Postemergence, scale of 0 to 10 where 0 is no effect and 10 is complete control
[27] = Rate 250 g/ha, Postemergence, scale 0 to 10, 0 is no effect, 10 is complete control
[28] = Rate 500 g/ha, Postemergence, scale 0 to 10

`CC(C)N(C(=O)n1oc(=O)n(C)c1=O)c1ccc(F)cc1` [Compound 138] was tested, and the “S. Flatsedge plant response rating” value ([1]; Postemergence (flood test species), Rate 125 g/ha) was 0, the “S. Flatsedge plant response rating” value ([1]; Rate 62 g/ha, Postemergence section, flood test species) was 0 and the “Plant response rating, S. Flatsedge” value [1, 17] was 7. The “Ducksalad plant response rating” value [2, 18] was 0, the “Ducksalad plant response rating” value [2, 19] was 0 and the “Ducksalad plant response rating” value [2, 20] was 0. For the same compound, the “Plant response rating, Ducksalad” value [2, 17] was 2, the “Soybean plant response rating” value [3, 21] was 3 and the “Soybean plant response rating” value [3, 22] was 0. For the same compound, the “Soybean plant response rating (0 to 10 scale)” value [3, 23] was 4, the “Soybean plant response rating” value [3, 24] was 5 and the “Soybean plant response rating” value [3, 25] was 8. For the same compound, the “Soybean plant response rating” value [3, 26] was 2, the “Plant response rating, Soybean” value [3, 27] was 4 and the “Soybean plant response rating” value [3, 28] was 4. The “Blackgrass plant response rating” value [4, 21] was 9, the “Blackgrass plant response rating” value [4, 22] was 9 and the “Blackgrass plant response rating (0 to 10 scale)” value [4, 23] was 9. For the same compound, the “Blackgrass plant response rating” value [4, 24] was 9, the “Blackgrass plant response rating” value [4, 25] was 9 and the “Blackgrass plant response rating” value [4, 26] was 7. For the same compound, the “Plant response rating, Blackgrass” value [4, 27] was 9, the “Blackgrass plant response rating” value [4, 28] was 9 and the “Rice plant response rating” value [5, 18] was 7. The “Rice plant response rating” value [5, 19] was 0, the “Rice plant response rating” value [5, 20] was 0 and the “Plant response rating, Rice” value [5, 17] was 8. The “Redroot pigweed plant response rating” value [6, 21] was 5, the “Redroot pigweed plant response rating” value [6, 22] was 9 and the “Redroot pigweed plant response rating (0 to 10 scale)” value [6, 23] was 10. For the same compound, the “Redroot pigweed plant response rating” value [6, 24] was 10, the “Redroot pigweed plant response rating” value [6, 25] was 10 and the “Redroot pigweed plant response rating” value [6, 26] was 3. The “Plant response rating, Redroot pigweed” value [6, 27] was 7, the “Redroot pigweed plant response rating” value [6, 28] was 8 and the “Giant foxtail plant response rating” value [7, 21] was 9. The “Giant foxtail plant response rating” value [7, 22] was 7, the “Giant foxtail plant response rating (0 to 10 scale)” value [7, 23] was 9 and the “Giant foxtail plant response rating” value [7, 24] was 10. The “Giant foxtail plant response rating” value [7, 25] was 10, the “Giant foxtail plant response rating” value [7, 26] was 9 and the “Plant response rating, Giant foxtail” value [7, 27] was 9. For the same compound, the “Giant foxtail plant response rating” value [7, 28] was 9, the “Nutsedge plant response rating” value [8, 21] was 5 and the “Nutsedge plant response rating” value [8, 22] was 2. For the same compound, the “Nutsedge plant response rating (0 to 10 scale)” value [8, 23] was 5, the “Nutsedge plant response rating” value [8, 24] was 7 and the “Nutsedge plant response rating” value [8, 25] was 7. The “Nutsedge plant response rating” value [8, 26] was 4, the “Plant response rating, Nutsedge” value [8, 27] was 6 and the “Bedstraw plant response rating” value [9, 21] was 7. The “Bedstraw plant response rating” value [9, 22] was 5, the “Bedstraw plant response rating (0 to 10 scale)” value [9, 23] was 7 and the “Bedstraw plant response rating” value [9, 24] was 10. For the same compound, the “Bedstraw plant response rating” value [9, 25] was 10, the “Bedstraw plant response rating” value [9, 26] was 2 and the “Plant response rating, Bedstraw” value [9, 27] was 8. For the same compound, the “Bedstraw plant response rating” value ([9]; Rate 500 g/ha, Postemergence, scale 0 to 10, 0 no effect, 10 complete control) was 9, the “Morningglory plant response rating” value [10, 21] was 5 and the “Morningglory plant response rating” value [10, 22] was 0. The “Morningglory plant response rating (0 to 10 scale)” value [10, 23] was 0, the “Morningglory plant response rating” value [10, 24] was 3 and the “Morningglory plant response rating” value [10, 25] was 4. The “Morningglory plant response rating” value [10, 26] was 5, the “Plant response rating, Morningglory” value [10, 27] was 6 and the “Morningglory plant response rating” value [10, 28] was 10. For the same compound, the “Corn plant response rating” value [11, 21] was 4, the “Corn plant response rating” value [11, 22] was 0 and the “Corn plant response rating (0 to 10 scale)” value [11, 23] was 3. For the same compound, the “Corn plant response rating” value [11, 24] was 8, the “Corn plant response rating” value [11, 25] was 9 and the “Corn plant response rating” value [11, 26] was 0. The “Plant response rating, Corn” value [11, 27] was 7, the “Corn plant response rating” value [11, 28] was 7 and the “Crabgrass plant response rating” value [12, 21] was 9. The “Crabgrass plant response rating” value [12, 22] was 9, the “Crabgrass plant response rating (0 to 10 scale)” value [12, 23] was 9 and the “Crabgrass plant response rating” value [12, 24] was 10. The “Crabgrass plant response rating” value [12, 25] was 10, the “Crabgrass plant response rating” value [12, 26] was 8 and the “Plant response rating, Crabgrass” value [12, 27] was 9. For the same compound, the “Crabgrass plant response rating” value [12, 28] was 9, the “Sugarbeets plant response rating” value [13, 21] was 0 and the “Sugarbeets plant response rating” value [13, 22] was 9. For the same compound, the “Sugarbeets plant response rating (0 to 10 scale)” value [13, 23] was 10, the “Sugarbeets plant response rating” value [13, 24] was 10 and the “Sugarbeets plant response rating” value [13, 25] was 10. The “Sugarbeets plant response rating” value [13, 26] was 0, the “Plant response rating, Sugarbeets” value [13, 27] was 6 and the “Sugarbeets plant response rating” value [13, 28] was 8. For the same compound, the “Wild oats plant response rating” value [14, 21] was 2, the “Wild oats plant response rating” value [14, 22] was 5 and the “Wild oats plant response rating (0 to 10 scale)” value [14, 23] was 9. For the same compound, the “Wild oats plant response rating” value [14, 25] was 10, the “Wild oats plant response rating” value [14, 26] was 0 and the “Plant response rating, Wild oats” value [14, 27] was 3. The “Wild oats plant response rating” value [14, 28] was 8, the “B. signalgrass plant response rating” value [15, 21] was 7 and the “B. signalgrass plant response rating” value [15, 22] was 2. The “B. signalgrass plant response rating (0 to 10 scale)” value [15, 23] was 4, the “B. signalgrass plant response rating” value [15, 24] was 6 and the “B. signalgrass plant response rating” value [15, 25] was 9. The “B. signalgrass plant response rating” value [15, 26] was 5, the “Plant response rating, B. signalgrass” value [15, 27] was 8 and the “B. signalgrass plant response rating” value ([15]; Rate 500 g/ha, Postemergence, scale of 0 to 10 where 0 is no effect and 10 is complete control) was 8. For the same compound, the “Cocklebur plant response rating” value [16, 21] was 0, the “Cocklebur plant response rating” value [16, 22] was 0 and the “Cocklebur plant response rating” value [16, 24] was 0. The “Cocklebur plant response rating” value [16, 25] was 0, the “Cocklebur plant response rating” value [16, 26] was 0 and the “Plant response rating, Cocklebur” value [16, 27] was 2. For the same compound, the “Cocklebur plant response rating” value [16, 28] was 3.

— US6737383B1, “Herbicidal oxadiazolidines” (priority 1999, dated 2004)
